From patent US6743423B1, “Use of adeno-associated viruses for decreasing the radiotherapy-induced or chemotherapy- induced resistance in cancer patients” (Deutsches Krebsforschungszentrum Stiftung des Offentlichen …, priority 1998, dated 2004)

Key:
Type in all cases: cell-based, human
[1] = system: NCI-H146; experiment: MTT proliferation assay, SCLC cell line NCI-H146 (chemotherapeutic agents with or without AAV-2 infection); details: for Sensitization factor (A/Ao)* 10^4 Ip.AAV/Cell: AAV-2 infection 10^4 per cell vs mock infection
[2] = system: NCI-H209; experiment: MTT proliferation assay, SCLC cell line NCI-H209 (chemotherapeutic agents with or without AAV-2 infection); details: for Sensitization factor (A/Ao)* 10^4 Ip.AAV/Cell: AAV-2 infection 10^4 per cell vs mock infection
Experimental: (§1) Small cell lung carcinoma cell lines (NCI-H69, NCI-H164, NCI-H209, and NCI-H446) (Cancer Res., 1980, 40, 3502-3507; Cancer Res., 1985, 45, 2913-2923) were cultured in RPMI-1640 medium (Eurobio, Raunheim, Germany). HeLa cells were cultured in DMEN (Eurobio, Raunheim, Germany). All growth media were supplemented with glutamine (Eurobio, 1%), antibiotics (penicillin and streptomycin) and 10% heat-inactivated fetal calf serum (PAA; Liz, Austria). The cultures were incubated at 37° C. in a damp atmosphere with 5% CO2 and tested for mycoplasma contaminations at regular intervals.
(§2) The adeno-associated virus type 2 (AAV-2) was replicated in HeLa cells using, adenovirus type 2 (Ad-2) as a helper. AAV was purified in a cesium-chloride gradient and titrated as described in J. Gen. Virol., 1994, 74, 2655-2662. The adenovirus type 2 inocula were clarified supernatants of Ad-2-infected HeLa cells.
(§3) The SCLC cells were suspended in PBS and incubated with purified AAV-2 in the indicated multiplicities of infection (MOI). […]
(§4) The proliferation of the SLCL cells after the infection with AAV-2 and/or treatment with chemotherapeutic agents was determined by the modified MTT test (J. Immunol. Methods, 1983, 56, 55-63). […] The precipitated proteins were pelleted by centrifugation (1000 rpm, 15 min), and 200 ul samples of the supernatant were measured to determine the optical density at 540 nm (OD540), OD690 being used as a reference and a Titertek Multiskan plus MKII densitometer being employed (Lab Systems, Finland).
(§5) The relative proliferation (A/Ao) was defined as the ratio of the absorption (A) measured in the supernatant of AAV-2-infected and/or pharmacon-treated cells, compared with the absorption measured for the supernatant of the mock-infected cells and untreated control cells (Ao). […]
(§6) The AAV-2-infected cells (MOI values as indicated) or mock-infected cells were placed in plates having 24 wells and treated with cisplatin. After six or eight days, the relative proliferation was determined. […]

[3] = system: NCI-H446; experiment: MTT proliferation assay, SCLC cell line NCI-H446 (chemotherapeutic agents with or without AAV-2 infection); details: for Sensitization factor (A/Ao)* 10^4 Ip.AAV/Cell: AAV-2 infection 10^4 per cell vs mock infection
Experimental: as §1, §2, §3, §4, §5, §6

[4] = system: NCI-H69; experiment: MTT proliferation assay, SCLC cell line NCI-H69 (chemotherapeutic agents with or without AAV-2 infection); details: AAV-2 infection 10^4 per cell vs mock infection
Experimental: as §1
The adeno-associated virus type 2 (AAV-2) was replicated in HeLa cells using, adenovirus type 2 (Ad-2) as a helper. […]
as §4, with “Finland). […]” for “Finland).”
as §6

[5] = cells treated only with cisplatin at IC50

Compound | Sensitization factor (A/Ao)* 10^4 Ip.AAV/Cell [1] | Sensitization factor (A/Ao)* 10^4 Ip.AAV/Cell [2] | Relative proliferation (A/Ao) [2, 5] | Sensitization factor (A/Ao)* 10^4 Ip.AAV/Cell [3] | Relative proliferation (A/Ao) [3, 5] | Sensitization factor (A/Ao)* 10^4 Ip.AAV/Cell [4] | Resistance/susceptibility of the cell line to the agent [1]
N.N.[Cl][Pt][Cl] [Cisplatin, cisplatin] | 1.37 | 2.33 | 0.5 | 2.50 | 0.59 | 1.43 | –
COc1cc([C@@H]2c3cc4c(cc3[C@@H](O[C@@H]3O[C@@H]5CO[C@@H](C)O[C@H]5[C@H](O)[C@H]3O)[C@H]3COC(=O)[C@H]23)OCO4)cc(OC)c1O [Etoposide, etoposide] | 1.38 | 2.12 | – | 3.00 | – | 1.30 | highly susceptible
